Assay results from patent US20190160049A1, “2-OXO-1,2-DIHYDROPYRIDINE-3-CARBOXAMIDE COMPOUNDS AND THEIR USE AS DUAL INHIBITORS OF PDK1/AURA” (INTERNATIONAL SOCIETY FOR DRUG DEVELOPMENT S.R.L., priority 2016, published 2019).

Experiments:
Format in all cases: cell-based
[1] = tested on: CSC neurospheres; assay: Sphere-derived cell morphology (neurosphere area, outgrowth of cellular processes); conditions: seven days, SA16 10 nM, 1 μM, 10 μM
Procedure: FIG. 5 illustrates the effects of SA16 on sphere-derived cell morphology of Example 3c. CSCs were treated for seven days with complete NSC medium containing DMSO (control), or SA16 (10 nM, 1 μM, 10 μM) (A) Representative cell micrographs of control and SA16 (10 μM) after seven days of treatment are shown. The area of the culture plates occupied by the spheres (B) and the length of cellular processes (C) were scored after seven days of treatment. The counts represent the mean values±SEM of two independent experiments. The significance of differences was determined with a one-way ANOVA with Bonferroni post-test: * p<0.05, ** p<0.01, *** p<0.001 vs. control cells.
FIG. 7 illustrates the effects of MP7, Alisertib and of their combined treatment on sphere-derived cell morphology of example 3c. CSCs were treated for seven days with complete NSC medium containing DMSO (control), MP7 and/or alisertib (A) Representative cell micrographs after seven days of treatment are shown. The area of the culture plates occupied by the spheres (B) and the length of cellular processes (C) were scored after seven days of treatment. The counts represent the mean values±SEM of two independent experiments. The significance of differences was determined with a one-way ANOVA with Bonferroni post-test: * p<0.05, *** p<0.001 vs. control cells; ## p<0.01 vs. cells treated with MP7 alone; § p<0.05 vs. cells treated with Alisertib alone.
The effects of SA16 on morphology of neurospheres were evaluated by quantifying the area occupied by the cells in culture plates, as well as the outgrowth of cellular processes.
The inventors then evaluated the effects of MP7, Alisertib and of their combination on CSC differentiation. The cells were incubated with […] MP7, alone or in combination with 1.5 μM Alisertib for seven days.

[2] = tested on: cancer stem cell (CSC) neurospheres obtained from U87MG cells; assay: CSC (GBM stem cell) proliferation, MTS assay; conditions: seven days
Procedure: FIG. 3 illustrates the effects of SA16 on CSC proliferation of example 3b. CSCs were treated in complete neurosphere medium with different concentrations of SA16 (1 nM-100 μM) for seven days. At the end of treatment, cell proliferation was measured using the MTS assay. The data are expressed as a percentage with respect to that of untreated cells (control), which was set to 100%, and are the mean values±SEM of three independent experiments, each performed in duplicate. IC50 value after seven days of treatment were calculated from sigmoid dose-response curve;
FIG. 4 illustrates combined inhibition of PDK1 and Aurora A on CSCs proliferation of example 3b. CSCs were treated in complete medium with different concentrations of MP7, in the presence or absence of Alisertib, for seven days. At the end of treatment, cell proliferation was measured using the MTS assay.
The data are expressed as a percentage with respect to that of untreated cells (control), which was set to 100%, and are the mean values±SEM of three independent experiments, each performed in duplicate. The significance of the differences was determined with a one-way ANOVA with Bonferroni post-test: * p<0.05, *** p<0.001 vs. control cells; ## p<0.01, ### p<0.001 vs. cells treated with MP7 alone; §§ p<0.01, § § § p<0.001 vs. cells treated with Alisertib alone;
The inventors also examined the effects of SA16 compound on cancer stem cell (CSC) neurospheres obtained from U87MG cells.

[3] = tested on: U87MG cells; assay: U87MG cell proliferation, MTS assay; conditions: 72 h
Procedure: FIG. 1 illustrates the effects of SA16 on U87MG cell proliferation of example 3 (a). U87MG cells were treated in complete medium with different concentrations of SA16 (1 nM-100 μM) for 72 h. At the end of treatment, cell proliferation was measured using the MTS assay. The data are expressed as a percentage with respect to that of untreated cells (control), which was set to 100%, and are the mean values±SEM of three independent experiments, each performed in duplicate. The significance of the differences was determined with a one-way ANOVA with Bonferroni post-test: * p<0.05, ** p<0.01, *** p<0.001 vs. control cells;
FIG. 2 illustrates the combined inhibition of PDK1 and Aurora A on U87MG cell proliferation of example 3a. U87MG cells were treated in complete medium with different concentrations of MP7, in the presence or absence of Alisertib, for 72 h. At the end of treatment, cell proliferation was measured using the MTS assay. The data are expressed as a percentage with respect to that of untreated cells (control), which was set to 100%, and are the mean values±SEM of three independent experiments, each performed in duplicate. The significance of the differences was determined with a one-way ANOVA with Bonferroni post-test: * p<0.05, *** p<0.001 vs. control cells; ## p<0.01, ### p<0.001 vs. cells treated with MP7 alone; §§ p<0.01, § § § p<0.001 vs. cells treated with Alisertib alone;
To examine the effects of SA16 on U87MG cell growth/survival, U87MG cells were incubated with different concentrations of the compound SA16 (1 nM-10 μM) for 72 h.
In parallel experiments, U87MG proliferation was assessed in the presence of a well-known PDK1 inhibitor MP7, alone or in combination with the Aurora A inhibitor, Alisertib.

For COc1cc(Nc2ncc3c(n2)-c2ccc(Cl)cc2C(c2c(F)cccc2OC)=NC3)ccc1C(=O)O [Alisertib, 4-{[9-Chloro-7-(2-fluoro-6-methoxyphenyl)-5H-pyrimido[5,4-d][2]benzazepin-2-yl]amino}-2-methoxybenzoic acid], the “outgrowth of cellular processes” value ([1]; 1.5 μM Alisertib) was “modest but significant outgrowth of cellular processes”, the “area occupied by the neurospheres” value ([1]; 2.5 PIM MP7, 1.5 μM Alisertib) was “reduction in the area occupied by the neurospheres” and the “effect on CSC proliferation (in words)” value [2] was “anti-proliferative effects on CSCs, in a concentration-dependent manner”. For the same compound, the “effect on U87MG cell proliferation (in words)” value [3] was “slightly reduced U87MG cell proliferation”.
